Measurements as given in patent US9834559B2, “4-Amino-6-phenyl-5,6-dihydroimidazo[1,5-a]pyrazin-3(2H)-one derivatives as inhibitors of beta-secretase (BACE)” (Janssen Pharmaceutica NV, priority 2013, dated 2017).

How the values were obtained:
[1] = tested on: brain levels of soluble Aβ40 and Aβ42; assay: In vivo Aβ lowering, brain levels of soluble Aβ by MSD electrochemiluminescence; parameters: species or system mouse; conditions: untreated control = 100
From the text: To determine whether acute administration of an Aβ lowering agent would reduce Aβ levels in vivo, non-transgenic rodents, e.g. mice or rats were used. Animals treated with the Aβ lowering agent were examined and compared to those untreated or treated with vehicle and brain levels of soluble Aβ42, Aβ40, Aβ38, and Aβ37 were quantitated by Meso Scale Discovery's (MSD) electrochemiluminescence detection technology. Treatment periods varied from hours (h) to days and were adjusted based on the results of the Aβ lowering once a time course of onset of effect could be established.
A typical protocol for measuring Aβ lowering in vivo is shown but it is only one of many variations that could be used to optimize the levels of detectable Aβ. For example, Aβ lowering compounds were formulated in 20% of Captisol® (a sulfo-butyl ether of β-cyclodextrin) in water or 20% hydroxypropyl β cyclodextrin. The Aβ lowering agents were administered as a single oral dose or by any acceptable route of administration to overnight fasted animals. After 4 h, the animals were sacrificed and Aβ levels were analysed.
Blood was collected by decapitation and exsanguinations in EDTA-treated collection tubes. Blood was centrifuged at 1900 g for 10 minutes (min) at 4° C. and the plasma recovered and flash frozen for later analysis. The brain was removed from the cranium and hindbrain. The cerebellum was removed and the left and right hemisphere were separated. The left hemisphere was stored at −18° C. for quantitative analysis of test compound levels. The right hemisphere was rinsed with phosphate-buffered saline (PBS) buffer and immediately frozen on dry ice and stored at −80° C. until homogenization for biochemical assays.
Mouse brains from non-transgenic animals were resuspended in 8 volumes of 0.4% DEA (diethylamine)/50 mM NaCl containing protease inhibitors (Roche-11873580001 or 04693159001) per gram of tissue, e.g. for 0.158 g brain, add 1.264 ml of 0.4% DEA. All samples were homogenized in the FastPrep-24 system (MP Biomedicals) using lysing matrix D (MPBio #6913-100) at 6 m/s for 20 seconds. Homogenates were centrifuged at 20800×g for 5 min and supernatants collected. Supernatants were centrifuged at 221.300×g for 50 min. The resulting high speed supernatants were then transferred to fresh eppendorf tubes. Nine parts of supernatant were neutralized with 1 part 0.5 M Tris-HCl pH 6.8 and used to quantify Aβ.
To quantify the amount of Aβ42, Aβ40, Aβ38, and Aβ37 in the soluble fraction of the brain homogenates, simultaneous specific detection of Aβ42, Aβ40, Aβ38, and Aβ37 was performed using MSD's electro-chemiluminescence multiplex detection technology. In this assay purified monoclonal antibodies specific for Abeta37 (JRD/Aβ37/3), Abeta38 (J&JPRD/Aβ38/5), Abeta40 (JRF/cAβ40/28), and Abeta42 (JRF/cAβ42/26) were coated on MSD 4-plex plates. Briefly, the standards (a dilution of synthetic Aβ42, Aβ40, Aβ38, and Aβ37) were prepared in 1.5 ml Eppendorf tube in Ultraculture, with final concentrations ranging from 10000 to 0.3 pg/m. The samples and standards were co-incubated with Sulfo-tag labelled JRF/rAβ/2 antibody to the N-terminus of Aβ as detector antibody. 50 μl of conjugate/sample or conjugate/standards mixtures were then added to the antibody-coated plate. The plate was allowed to incubate overnight at 4° C. in order to allow formation of the antibody-amyloid complex. Following this incubation and subsequent wash steps the assay was finished by adding read buffer according to the manufacturer's instructions (Meso Scale Discovery, Gaitherburg, Md.).
The SULFO-TAG emits light upon electrochemical stimulation initiated at the electrode. MSD Sector instrument SI6000 was used for signal read-out.
The results are shown in Table 7 (value for untreated animals as control (Ctrl) was set at 100): […]

[2] = dose 10, s.c., 2 h after administration
[3] = dose 10, s.c., 4 h after administration
[4] = dose 10, p.o., 4 h after administration

melting point	SMILES	Aβ40 (% vs Ctrl)_Mean [1, 2]	Aβ42 (% vs Ctrl)_Mean [1, 2]	Aβ40 (% vs Ctrl)_Mean [1, 3]	Aβ42 (% vs Ctrl)_Mean [1, 3]	Aβ40 (% vs Ctrl)_Mean [1, 4]	Aβ42 (% vs Ctrl)_Mean [1, 4]
	Cn1cc2n(c1=O)C[C@@](C)(c1cc(NC(=O)c3ccc(C#N)cn3)ccc1F)N=C2N [Compound 1, N-{3-[(6R)-8-Amino-2,6-dimethyl-3-oxo-2,3,5,6-tetrahydroimidazo[1,5-a]pyrazin-6-yl]-4-fluorophenyl}-5-cyanopyridine-2-carboxamide]	105 % vs Ctrl	105 % vs Ctrl	132 % vs Ctrl	109 % vs Ctrl		
	Cc1nc(C(=O)Nc2ccc(F)c([C@]3(C)Cn4c(cn(C)c4=O)C(N)=N3)c2)co1 [Compound 3, N-{3-[(6R)-8-Amino-2,6-dimethyl-3-oxo-2,3,5,6-tetrahydroimidazo[1,5-a]pyrazin-6-yl]-4-fluorophenyl}-2-methyl-1,3-oxazole-4-carboxamide]					94 % vs Ctrl	97 % vs Ctrl
214.8 °C	Cn1cc2n(c1=O)C[C@@](C)(c1cc(NC(=O)c3ccc(Cl)cn3)ccc1F)N=C2N [Compound 4, N-{3-[(6R)-8-amino-2,6-dimethyl-3-oxo-5H-imidazo[1,5-a]pyrazin-6-yl]-4-fluoro-phenyl}-5-chloro-pyridine-2-carboxamide]			121 % vs Ctrl	125 % vs Ctrl		
